The values below come from patent publication US7094405B1, “Peptides which elicit a high neutralizing antibody titer, cytotoxic T lymphocyte response and T helper cell response in a broad range of MHC type recipients” (priority 1986, dated 2006).

Like-named read-outs stand apart in the source and are kept apart here.

The subject of test [1] is peripheral blood lymphocytes of HIV-positive, influenza positive humans. The following applies: cited from earlier work; for tested cases with significant IL-2 responses: peripheral blood lymphocytes of HIV-positive, influenza positive humans, previous study (42).
Test [2] deals with gp160-expressing 15-12 BALB/c fibroblast cell line. The class given is cell-based. The note with it: spleen cells of B10.A(5R) mice immunized with 20 nmoles PCLUS4-18, restimulated 6 days.
Method: The resulting effector cells were tested on the gp160-expressing 15-12 BALB/c fibroblast cell line or on neo-only transfected fibroblast cells (not shown) as targets (FIG. 9B). […] SEM of triplicate wells was less than 7.3% of the mean.
A further test deals with HIV-1 IIIB. Description: Neutralization of HIV-1 IIIB by immune sera, quantitative infectivity microassay using CEM-SS cells. Type of test: in vivo. The note with it: 31 days after single immunization with 20 nanomole peptide.
The test system of a further test is Peptide 18. The note with it: for ELISA: Mean p18 Specific Absorbance ± S.E.M.: 31 days after single immunization with 20 nanomole peptide, 5 mouse sera at 1:1000 serum dilution. A general note: ELISA stands for enzyme-linked immunosorbent assay.
For test [3], the system named is BALB/c.3T3 transfectants expressing the whole gp160 protein (cell line 15-12) or P18 pulsed 18neo cells. Type of test: in vivo, mice.
Method: Mice 8-20 weeks old were immunized subcutaneously at the tail base with 20 nmoles of each peptide mixed with QS21 (15 μg), the highly purified saponin fraction from the soap bark tree Quillaja saponaria, which retains the greatest adjuvant activity but is non-toxic (103). […] Cytolytic activity of in vitro secondary CTL was measured as described previously (104) using a 6 hr. assay with ^51Cr-labeled targets. […] Maximum release was determined from supernatants of cells that were lysed by the addition of 5% Triton X-100. Spontaneous release was determined from targets cells incubated without added effectors cells. The assay was performed in triplicate, with 5000 target cells per well.
Background lysis on control 18neo fibroblasts in the absence of peptide was less than 8%. SEM of triplicate wells was less than 7.2% of the mean.

Method for HIV-1 IIIB: (§1) Immunizations. Mice were immunized intraperitoneally with 20 nanomoles of each peptide emulsified 1:1 in Freund's Complete Adjuvant (CFA). At days 21 and 31 post immunization blood was drawn by retroorbital bleed, allowed to clot and the serum removed and frozen at −20° C.
Neutralization assays of HIV-1. The quantitative infectivity microassay using CEM-SS cells was performed as described previously (52). […] The mixtures were added to duplicate wells containing 5×10^4 DEAE-dextran treated CEM-SS cells for 1 h at 37° C., after which the virus-antibody mixtures were removed and replaced with medium, and the cells cultured only in complete medium for 5 days (for HIV-1 IIIB) or 4 days (for HIV-1 MN, determined to be optimal for each virus strain) at 37° C. in 5% CO2. Units of infectious virus were quantitated by subsequent syncytia formation of infected cells under an inverted microscope. […] The assay measures neutralization of cell-free virus in the first incubation, not inhibition of syncytium formation, which is only the readout for enumerating infectious virus. […]
Method for Peptide 18: ELISA. Wells of round bottom flexible PVC microtiter plates (#3912 Falcon Labware, Oxnard, Calif.) were coated overnight at 4° C. with 100 μl of 10 μM Peptide 18, substituted peptide 18, cluster peptide 3, cluster peptide 6, 0.2 μg/ml recombinant gp 120 (ABT, Advanced Biotechnologies, Mass.) or 2 μM sperm whale myoglobin in 0.1 M carbonate buffer pH 9.6. […] The plates were blocked with 1% BSA in phosphate buffered saline (PBS) for 1-1.5 h. at 4° C. and washed with PBS containing 0.05% Tween 20 and 1% BSA (PBSTB). Next, 100 μl of test serum was added to duplicate wells and incubated for 1-1.5 h. at 4° C. Test sera were assayed at 10 fold dilutions in PBSTB ranging from 1:100-1:10,000. The wells were then washed with 200 μl PBSTB 10 times using an automatic plate washer (BioRad Model 1550) and incubated for 1 h at 4° C. with 100 μl alkaline phosphatase-conjugated goat anti-mouse IgG (Promega, Madison, Wis.) diluted 1:7500 in PBSTB. After 10 washes, bound antibodies were detected by the addition of 100 μl of 1 mg/ml paranitrophenyl phosphate as substrate. The optical density at 405 nm was read with an ELISA reader. Specific absorbance was determined as the mean optical density at 405 nm on the relevant antigen coated wells minus the optical density 405 nm on nonrelevant sperm whale myoglobin coated wells.
as §1

As for EQMHEDIISLWDQSLKPCVK [PCLUS 1], the “donors in which IL-2 production was stimulated” value in test [1] (HIV seropositive, flu-positive donors) is 23 of 36. For the same sequence, the “tested cases with significant IL-2 responses” value in test [1] is 64%.

With RDNWRSELYKYKVVKIEPLGVAPT [PCLUS4], in test [2], the “induction of CTL activity on in vitro restimulation (in words)” value is on record as “did not induce any CTL activity”. Besides, the “tested cases with significant IL-2 responses” value in test [1] is on record as 52%.

On to “AVAEGTDRVIEVVQGAYRAIRHIPRRIRQGLER [PCLUS6]”, for which the “tested cases with significant IL-2 responses” value in test [1] is on record as 58%.

As for KQIINMWQEVGKAMYAPPISGQIR [PCLUS3], the “tested cases with significant IL-2 responses” value in test [1] is given as 73%.

Take RIQRGPGRAFVTIGK [Peptide P18]: the “No. of mice with positive neutralizing titers/total tested” value in the test on HIV-1 IIIB (B10.BR or B10.A (A^kE^k) mice) and in the test with HIV-1 IIIB (BALB/c or B10.D2 (A^dE^d) mice) was “(0/5)” throughout. The “ELISA: Mean p18 Specific Absorbance ± S.E.M.” value in the test with Peptide 18 (B10.A(5R) (A^bE^b) mice), in the test with Peptide 18 (B10.BR or B10.A (A^kE^k) mice), with Peptide 18 (B10.HTT (A^aE^a) mice) and with Peptide 18 (BALB/c or B10.D2 (A^dE^d) mice) was 0.00 throughout. The “peptide 18 specific antibody response (in words)” value in the test with Peptide 18 (mice of four strains immunized with 20 nanomoles of construct) is listed as “no peptide 18 specific antibody was detected”. Further, the “induction of CTL activity on in vitro restimulation (in words)” value in test [2] was “not”. In addition, in test [3] (B10.D2 (PCLUS3 series) or B10.A(5R) (PCLUS4 series) mice, QS21, restimulated with 0.1 μM P18 and rIL2), the “CTL activity, linkage requirement experiment (in words)” value is reported as “negligible”. The “CTL activity after single immunization in QS21 (in words)” value in test [3] (B10.D2, B10.A(5R), B10.S(9R) mice, restimulated with P18, E:T up to 60:1) is given as “only marginal CTL activity”.
